Earlier results as cited in patent publication US6602892B1, “Methods for nicotine replacement dosage determination” (priority 1993, dated 2003).

Settings: in vivo

Row | Structure (SMILES) | half life
1 | CN1CCCC1c1cccnc1 (centres unmarked) [nicotine] | two
2 | CN1C(=O)CC[C@H]1c1cccnc1 [cotinine] | about 20 hours
